From ChEMBL document CHEMBL3046054, “Chemico-biological investigation of rhizome essential oil of Zingiber morannative to Northeast India” (Med Chem Res, 2013)
≈ marks a conversion by molar mass, not a printed value. Calls of active or inactive are those of the source. The rule behind the calls is not given here.

Tests used:
[1] = system: HeLa; experiment: Induction of necrosis in Homo sapiens (human) HeLa cells assessed as increase in cytoplasmic volume at >50 ug/ml after 24 hr by light microscopic analysis; type: functional, cell-based
[2] = system: HeLa; experiment: Induction of apoptosis in Homo sapiens (human) HeLa cells assessed as apoptotic bodies at <40 ug/ml after 24 hr by light microscopic analysis; type: functional, cell-based
[3] = system: HeLa; experiment: Induction of apoptosis in Homo sapiens (human) HeLa cells assessed as rounded cells at 10 to 50 ug/ml after 24 hr by light microscopic analysis; type: functional, cell-based
[4] = system: HeLa; experiment: Induction of necrosis in Homo sapiens (human) HeLa cells assessed as increase in nucleus volume at >50 ug/ml after 24 hr by light microscopic analysis; type: functional, cell-based
[5] = system: HeLa; experiment: Induction of apoptosis in Homo sapiens (human) HeLa cells assessed as membrane blebbing at <40 ug/ml after 24 hr by light microscopic analysis; type: functional, cell-based
[6] = system: HeLa; experiment: Induction of apoptosis in Homo sapiens (human) HeLa cells assessed as detachment from substratum at <40 ug/ml after 24 hr by light microscopic analysis; type: functional, cell-based
[7] = system: HeLa; experiment: Induction of necrosis in Homo sapiens (human) HeLa cells assessed as increase in cytoplasmic vacuolization at >50 ug/ml after 24 hr by light microscopic analysis; type: functional, cell-based
[8] = system: HeLa; experiment: Growth inhibition of Homo sapiens (human) HeLa cells at 10 to 30 ug/ml up to 3 days by MTT assay; type: functional
[9] = system: HeLa; experiment: Cytotoxicity against Homo sapiens (human) HeLa cells assessed as cell death at 10 to 100 ug/ml after 48 hr by light microscopic analysis; type: functional, cell-based
[10] = system: HeLa; experiment: Induction of apoptosis in Homo sapiens (human) HeLa cells assessed as fragmented nuclei at 10 to 100 ug/ml after 24 hr by acridine orange/ethidium bromide-based inverted fluorescence microscopic analysis; type: functional, cell-based
[11] = system: HeLa; experiment: Induction of apoptosis in Homo sapiens (human) HeLa cells assessed as floating cells at 10 to 50 ug/ml after 24 hr by light microscopic analysis; type: functional, cell-based
[12] = system: HeLa; experiment: Induction of necrosis in Homo sapiens (human) HeLa cells assessed as dissolution of cytoplasmic membrane at >50 ug/ml after 24 hr by light microscopic analysis; type: functional, cell-based
[13] = system: HeLa; experiment: Induction of necrosis in Homo sapiens (human) HeLa cells assessed as dissolution of nuclear membrane at >50 ug/ml after 24 hr by light microscopic analysis; type: functional, cell-based
[14] = system: HeLa; experiment: Induction of apoptosis in Homo sapiens (human) HeLa cells assessed as rounded cells at 10 to 100 ug/ml after 48 hr by light microscopic analysis; type: functional, cell-based
[15] = system: HeLa; experiment: Induction of apoptosis in Homo sapiens (human) HeLa cells assessed as loss of cell to cell contact at <40 ug/ml after 24 hr by light microscopic analysis; type: functional, cell-based
[16] = system: HeLa; experiment: Cytotoxicity against Homo sapiens (human) HeLa cells assessed as decrease in cell viability at 10 to 100 ug/ml after 24 hr by acridine orange/ethidium bromide-based inverted fluorescence microscopic analysis; type: functional
[17] = system: HeLa; experiment: Induction of necrosis in Homo sapiens (human) HeLa cells assessed as chromatin flocculation at >50 ug/ml after 24 hr by light microscopic analysis; type: functional, cell-based
[18] = system: HeLa; experiment: Cytotoxicity against Homo sapiens (human) HeLa cells up to 3 days by MTT assay; type: functional, cell-based; conditions: for IC50: 72 h
[19] = system: HeLa; experiment: Induction of apoptosis in Homo sapiens (human) HeLa cells assessed as membrane blebbing at <55 ug/ml after 24 hr by light microscopic analysis; type: functional, cell-based
[20] = system: HeLa; experiment: Induction of apoptosis in Homo sapiens (human) HeLa cells assessed as apoptotic bodies at <55 ug/ml after 24 hr by light microscopic analysis; type: functional, cell-based
[21] = system: HeLa; experiment: Induction of apoptosis in Homo sapiens (human) HeLa cells assessed as detachment from substratum at <55 ug/ml after 24 hr by light microscopic analysis; type: functional, cell-based
[22] = system: HeLa; experiment: Induction of apoptosis in Homo sapiens (human) HeLa cells assessed as loss of cell to cell contact at <55 ug/ml after 24 hr by light microscopic analysis; type: functional, cell-based

Compound	Activity [1]	Activity [2]	Activity [3]	Activity [4]	Activity [5]	Activity [6]	Activity [7]	growth inhibition (GI) [8]	Activity [9]	Activity [10]	Activity [11]	Activity [12]	Activity [13]	Activity [14]	Activity [15]	Activity [16]	Activity [17]	Activity [18]	IC50 [18]	also measured
CC(C)=CCCC(C)=CC=O	Active	Active	Active	Active	Active	Active	Active	60%	Active	Active	Active	Active	Active	Active	Active	Active	Active	Dose-dependent effect	39.6 µg/mL (≈ 260 µM)	
C=C1C2CCC(C2)C1(C)C (configuration not stated) [CAMPHENE]	Active	Active	Active	Active	Active	Active	Active	60%	Active	Active	Active	Active	Active	Active	Active	Active	Active	Dose-dependent effect	38.5 µg/mL (≈ 283 µM)	
C=CC(C)(O)CCC=C(C)C (configuration not stated) [LINALOOL]	Active		Active	Active			Active	60%	Active	Active	Active	Active	Active	Active		Active	Active	Dose-dependent effect	55.4 µg/mL (≈ 359 µM)	Activity [19]: Active; Activity [20]: Active; Activity [21]: Active; Activity [22]: Active
